# Organism: Rattus norvegicus
# Assay: Open TG-GATES - Regimen: Single
# Assay type: toxicity, organism-based, Sprague-Dawley
# Parameters: regimen Single, gender Male, age 6 weeks
# Conditions: in vivo, po, route gavage; for TC / TG / TP / gamma-GTP / ALP / ALT / AST / BUN / CRE / Ca / Cl / DBIL / GLC / K / LDH / Na / RALB / TBIL / IP / PL: tissue Plasma; for APTT / Bas / Eos / Fbg / Hb / Ht / Lym / MCH / MCHC / Mono / Neu / PT / Plat / RBC / Ret / WBC / MCV: tissue Blood; for KIDNEY_L / KIDNEY_R / KIDNEY_TOTAL: tissue Kidney; for LIVER: tissue Liver
# [1] = 1000 mg/kg, 24 h, dose level Middle
# [2] = 2000 mg/kg, 3 h, dose level High
# [3] = 2000 mg/kg, 6 h, dose level High
# [4] = 2000 mg/kg, 9 h, dose level High
# [5] = 2000 mg/kg, 24 h, dose level High
compound,measurement,setting,value
CCOc1ccc(NC(C)=O)cc1 [PHENACETIN],TC,[1],97.2 mg/dL
same,TG,[1],92.4 mg/dL
same,TP,[1],5.6 g/dL
same,gamma-GTP,[1],1.2 IU/L
same,TERMINAL_BW,[2],214.4 g
same,APTT,[2],17.5 s
same,Bas,[2],0%
same,Eos,[2],1%
same,Fbg,[2],307.2 mg/dL
same,Hb,[2],13.9 g/dL
same,Ht,[2],41%
same,Lym,[2],76.8%
same,MCH,[2],21.2 pg
same,MCHC,[2],33.8%
same,Mono,[2],2.8%
same,Neu,[2],19%
same,PT,[2],14.2 s
same,Plat,[2],115.4 x10_4/uL
same,RBC,[2],652.4 x10_4/ul
same,Ret,[2],9%
same,WBC,[2],60.2 x10_2/uL
same,KIDNEY_L,[2],0.9 g
same,KIDNEY_R,[2],1 g
same,KIDNEY_TOTAL,[2],1.9 g
same,LIVER,[2],9.2 g
same,ALP,[2],1540.4 IU/L
same,ALT,[2],39.8 IU/L
same,AST,[2],70.4 IU/L
same,BUN,[2],10.2 mg/dL
same,CRE,[2],0.1 mg/dL
same,Ca,[2],11 mg/dL
same,Cl,[2],99.4 meq/L
same,DBIL,[2],0 mg/dL
same,GLC,[2],240.4 mg/dL
same,K,[2],3.7 meq/L
same,LDH,[2],78 IU/L
same,Na,[2],139 meq/L
same,RALB,[2],2.6 g/dL
same,TBIL,[2],0.034 mg/dL
same,TG,[2],47.4 mg/dL
same,TP,[2],5.5 g/dL
same,gamma-GTP,[2],1 IU/L
same,TERMINAL_BW,[3],209.5 g
same,Bas,[3],0%
same,Eos,[3],0.4%
same,Fbg,[3],308.8 mg/dL
same,Ht,[3],40.1%
same,Lym,[3],74.2%
same,MCH,[3],21.2 pg
same,MCV,[3],61.4 fL
same,Mono,[3],2.2%
same,PT,[3],14.2 s
same,Plat,[3],115.7 x10_4/uL
same,RBC,[3],653.8 x10_4/ul
same,Ret,[3],8.4%
same,WBC,[3],47.7 x10_2/uL
same,KIDNEY_L,[3],0.9 g
same,KIDNEY_R,[3],0.9 g
same,KIDNEY_TOTAL,[3],1.8 g
same,LIVER,[3],9.1 g
same,ALP,[3],1249 IU/L
same,ALT,[3],45.6 IU/L
same,AST,[3],84 IU/L
same,BUN,[3],10.2 mg/dL
same,CRE,[3],0.1 mg/dL
same,Ca,[3],11.1 mg/dL
same,Cl,[3],103 meq/L
same,DBIL,[3],0 mg/dL
same,GLC,[3],192.2 mg/dL
same,IP,[3],9.9 mg/dL
same,K,[3],3.8 meq/L
same,LDH,[3],93.2 IU/L
same,Na,[3],139.2 meq/L
same,PL,[3],136.4 mg/dL
same,RALB,[3],2.7 g/dL
same,TBIL,[3],0.032 mg/dL
same,TC,[3],83.8 mg/dL
same,TP,[3],5.6 g/dL
same,gamma-GTP,[3],1.2 IU/L
same,TERMINAL_BW,[4],210.8 g
same,APTT,[4],16.8 s
same,Bas,[4],0%
same,Eos,[4],0.4%
same,Fbg,[4],288.4 mg/dL
same,Hb,[4],13.3 g/dL
same,Ht,[4],38.1%
same,Lym,[4],73.6%
same,MCH,[4],20.9 pg
same,MCHC,[4],35%
same,MCV,[4],59.8 fL
same,Mono,[4],3.2%
same,Neu,[4],22%
same,PT,[4],14.3 s
same,Plat,[4],123.9 x10_4/uL
same,RBC,[4],638.6 x10_4/ul
same,Ret,[4],8.7%
same,WBC,[4],54.6 x10_2/uL
same,KIDNEY_L,[4],0.9 g
same,KIDNEY_R,[4],0.9 g
same,KIDNEY_TOTAL,[4],1.8 g
same,LIVER,[4],9 g
same,ALP,[4],1259 IU/L
same,ALT,[4],40.6 IU/L
same,AST,[4],70.8 IU/L
same,BUN,[4],10.2 mg/dL
same,CRE,[4],0.1 mg/dL
same,Ca,[4],10.9 mg/dL
same,Cl,[4],101.2 meq/L
same,DBIL,[4],0 mg/dL
same,GLC,[4],205.6 mg/dL
same,IP,[4],9.1 mg/dL
same,K,[4],3.6 meq/L
same,LDH,[4],66.8 IU/L
same,Na,[4],137.6 meq/L
same,PL,[4],163 mg/dL
same,RALB,[4],2.5 g/dL
same,TBIL,[4],0.034 mg/dL
same,TC,[4],99.6 mg/dL
same,TG,[4],18 mg/dL
same,TP,[4],5.5 g/dL
same,gamma-GTP,[4],1.6 IU/L
same,TERMINAL_BW,[5],193.2 g
same,APTT,[5],18.2 s
same,Bas,[5],0.6%
same,Eos,[5],0.6%
same,Fbg,[5],273.4 mg/dL
same,Hb,[5],14.2 g/dL
same,Ht,[5],41.5%
same,Lym,[5],75%
same,MCH,[5],20.8 pg
same,MCHC,[5],34.2%
same,MCV,[5],60.7 fL
same,Mono,[5],2.6%
same,Neu,[5],20.8%
same,PT,[5],14.5 s
same,Plat,[5],138.6 x10_4/uL
same,RBC,[5],684.2 x10_4/ul
same,Ret,[5],7.5%
same,WBC,[5],70 x10_2/uL
same,KIDNEY_L,[5],0.9 g
same,KIDNEY_R,[5],1 g
same,KIDNEY_TOTAL,[5],1.9 g
same,LIVER,[5],7.5 g
same,ALP,[5],1341.4 IU/L
same,ALT,[5],44.8 IU/L
same,AST,[5],115 IU/L
same,BUN,[5],12 mg/dL
same,CRE,[5],0.2 mg/dL
same,Ca,[5],10.7 mg/dL
same,Cl,[5],104.2 meq/L
same,DBIL,[5],0.024 mg/dL
same,GLC,[5],171.2 mg/dL
same,IP,[5],9.6 mg/dL
same,K,[5],4.3 meq/L
same,LDH,[5],206 IU/L
same,Na,[5],140.8 meq/L
same,PL,[5],150.6 mg/dL
same,RALB,[5],2.7 g/dL
same,TBIL,[5],0.046 mg/dL
same,TC,[5],90.4 mg/dL
same,TG,[5],52.6 mg/dL
same,TP,[5],5.7 g/dL
same,gamma-GTP,[5],1 IU/L

# Reference: ChEMBL document CHEMBL3885861, “Open TG-GATES”
